The target in data set [1] is T1, adiponectin receptor 2 (AdipoR2) (Homo sapiens, UniProt Q86V24).
T1 sequence (Q86V24 1-386): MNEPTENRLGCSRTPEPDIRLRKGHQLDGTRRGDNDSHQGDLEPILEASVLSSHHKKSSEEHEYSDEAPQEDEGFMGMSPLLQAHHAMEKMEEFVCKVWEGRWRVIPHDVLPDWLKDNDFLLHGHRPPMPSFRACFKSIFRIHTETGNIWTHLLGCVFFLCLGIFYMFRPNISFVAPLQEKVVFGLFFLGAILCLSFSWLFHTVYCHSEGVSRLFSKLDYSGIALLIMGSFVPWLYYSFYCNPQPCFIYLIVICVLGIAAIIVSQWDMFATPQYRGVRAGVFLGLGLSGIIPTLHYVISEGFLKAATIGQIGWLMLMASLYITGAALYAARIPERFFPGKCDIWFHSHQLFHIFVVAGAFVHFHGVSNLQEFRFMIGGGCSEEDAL
Particulars: Dib et al. 2017; cited from earlier work.

Data set [2] has as its target T2, adiponectin receptor 1 (AdipoR1) (Homo sapiens, UniProt Q96A54).
T2 sequence (Q96A54 1-375): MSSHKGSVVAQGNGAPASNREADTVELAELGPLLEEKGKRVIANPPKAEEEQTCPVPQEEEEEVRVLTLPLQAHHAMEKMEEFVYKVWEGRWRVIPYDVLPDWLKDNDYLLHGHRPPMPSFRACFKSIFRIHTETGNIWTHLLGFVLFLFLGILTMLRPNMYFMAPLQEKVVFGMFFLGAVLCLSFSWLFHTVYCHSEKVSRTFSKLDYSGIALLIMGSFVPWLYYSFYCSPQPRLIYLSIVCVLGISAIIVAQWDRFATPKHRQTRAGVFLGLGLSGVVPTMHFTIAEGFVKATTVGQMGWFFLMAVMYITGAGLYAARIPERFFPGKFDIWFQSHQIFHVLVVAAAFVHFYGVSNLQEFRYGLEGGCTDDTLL
To be noted: Dib et al. 2017; cited from earlier work.

The subject of data set [3] is steroid synthesis in db/db mice. As to the kind of experiment: Plasma AUC of testosterone and progesterone in female db/db mice. The format is in vivo. Particulars: single po dose 50 and 100 mg/kg, significant at 100 mg/kg (p<0.1). On the procedure: Female db/db mice, which were untreated, or treated with Adiporon at 50 mg/kg and 100 mg/kg with a single po dose, were analysed. Blood was taken at 0.5, 1, 2, 4, and 24 hours, and plasma concentrations of progesterone (ibl/Tecan Order No RE52231, Hamburg) and testosterone (Demeditec Order No DEV9911, Kiel) were determined by commercial ELISAs. Area under the curve (AUC) of total steroids was determined by an algorithm according to Gagnon et al. (1998) by GraphPadPrism software. […] The effects are significant at the higher dosage of AdipoRon of 100 mg/kg after a single application (* t-test AUC versus 100 mg/kg Adiporon (n=5 time points), double sided; p<0.1).

Another data set has as its system Cyp17a1 mRNA. As to the kind of experiment: Cyp17a1 mRNA expression in ovaries of db/db mice. The format is in vivo. Particulars: 50 mg/kg single po dose, 0.5-24 h. On the procedure:
(§1) FIGS. 6A and 6B Lhcgr mRNA expression (6A) and Cyp17a1 mRNA expression (6B) in ovaries of untreated db/db mice (black column) or db/db mice treated with 50 mg/kg Adiporon (grey column) is shown (n=3 biological replicates; error bars show SD). Expression of Cyp17a1 and Lhrgr mRNA in ovaries of adult female db/db mice were analyzed for untreated mice or mice treated with 50 mg/kg Adiporon as a single po dose given at t=0 h. At 0.5 h, 1 h, 2 h, 4 h, 24 h, mice were killed, and ovaries were taken, mRNA isolated (Qiagen, RNeasy Mini kit #74106) and mRNA quantified by Q-PCR (ThermoFisher Scientific Assay on demand #Mm00484040_ml for Cyp17a1 and Mm00442931_ml for Lhcgr).

The subject of another data set is Lhcgr mRNA. As to the kind of experiment: Lhcgr mRNA expression in ovaries of db/db mice. The format is in vivo. Particulars: 50 mg/kg single po dose, 0.5-24 h. On the procedure:
as §1

The next data set deals with StAR mRNA in Y-1 cells. As to the kind of experiment: StAR mRNA induction by ACTH in adrenal cell line Y-1. It counts as cell-based, mouse. On the procedure: (§2) Y-1 cells (epithelial cells of mouse adrenal gland origin) were cultivated in F12-K medium with 10% FBS and 15% donor horse serum. Cells were treated with 10 nM ACTH, and 30 min later the Adipor1/2 agonist AdipoRon was added in a final concentration of 0.1 μM, 1 μM, 10 μM for two and a half hours. Cells were harvested, mRNA isolated and […] and Star mRNA quantified relative to β-actin (Actb) mRNA. Hatched column: vehicle control, grey column: 10 nM ACTH, white columns: 10 nM ACTH+0.1 μM, 1 μM, or 10 μM AdipoRon.
(§3) ACTH is a hormone of the Hypothalamic-pituitary-adrenal axis and stimulates the expression of Steroidogenic acute regulatory protein (StAR) and […] ([…]), which then can lead to cortisol production and, as a consequence, insulin resistance. Insulin insensitivity is observed in women diagnosed with PCOS. […] EC50 for AdipoRon for this effect is around 10 μM for StAR, and around 0.1 to 1 μM for Cyp11b1, but seems to be saturated at higher concentrations.

The test system of data set [4] is wt and Adipor1−/−Adipor2−/− mice. Particulars: FIG. 9B, cited from earlier work.
Data set [5] relates to Cyp11b1 mRNA in Y-1 cells. As to the kind of experiment: Cyp11b1 mRNA induction by ACTH in adrenal cell line Y-1. The format is cell-based, mouse. To be noted: for EC50: Mus musculus. On the procedure:
as §2, §3

Data set [6] deals with DHEA-induced PCOS Model in rats. As to the kind of experiment: DHEA-induced PCOS Model in rats. The format is in vivo, rat. To be noted: 60 mg/kg/d DHEA sc 20 days, 50 mg/kg/d Adiporon last 10 days. An excerpt: FIG. 8: Plasma testosterone concentration [nM] […] An autostimulation of adiponectin by stimulation of AdipoR1 and/or AdipoR2 has been described before and validates the activity of AdipoRon on the AdipoR1 and/or AdipoR2 receptors (Jardé et al. 2009).

A further data set relates to LH. As to the kind of experiment: LH concentration in plasma of female rats at proestrous. It counts as in vivo, rat. To be noted: female Han-Wistar rats, 50 or 100 mg/kg twice a day for one estrous cycle, d3 proestrous 7 pm. An excerpt: For this, the cycle phase of untreated naive female Han-Wistar rats was staged by vaginal smears. Rat plasma was taken at different days and time points of the cycle (d3=proestrous, d4=estrous), and LH in plasma determined by a rat pituitary magnetic bead panel (Milliplex, Cat No RPTMAG-86K). LH peak could be detected at d3 at 7 pm in the afternoon as described previously (Smith et al. 1975). Thus, this time point is well suited for measurement of the effect of AdipoR1 and/or AdipoR2 receptors activation by AdipoRon. […] For this, the cycle phase of untreated naive female Han-Wistar rats was staged by vaginal smears. Rats were treated for one estrous cycle, beginning with metestrous, with 50 mg/kg or 100 mg/kg of Adiporon in a suitable vehicle twice a day. Rat plasma was taken at d3=proestrous at 7 pm, and LH was determined by a rat pituitary magnetic bead panel (Milliplex Cat No RPTMAG-86K).

The next data set deals with tgLH mice. As to the kind of experiment: Oral glucose tolerance test in transgenic mice overexpressing LH (tgLH). The format is in vivo. To be noted: 100 mg/kg/d for four weeks, 2 g/kg glucose after 6 h fasting. On the procedure:
9A: Plasma insulin concentration [mg/L] in wt-mice (light grey column) and untreated tgLH mice (dark grey column) or tgLH mice treated with 100 mg/kg Adiporon (black column) is shown. 9B: Insulin concentrations [ng/mL] during OGTT in wt (left diagram) and Adipor1−/−Adipor2−/−tg mice (right diagram) treated with vehicle (open circle) or treated with 100 mg/kg (circle) are shown.
Increased LH secretion is causal for the development of PCOS in women, and tgLH overexpression in mice recapitulates the human PCOS phenotype in women. For this experiment, an oral glucose tolerance test was performed in control, transgenic LH overexpressing mice, and tgLH mice treated with Adiporon at 100 mg/kg/d for four weeks. To determine insulin sensitivity, plasma was taken at 15 min after giving an oral glucose gavage of 2 g/kg after fasting of the mice for 6 h in the last two days of the experiment (Andrikopoulos et al. 2008).

Data set [7] is described as follows: Single dose exposure experiment in db/db mice (unbound plasma concentration, LC/MS). The format is in vivo. To be noted: 100 mg/kg p.o. single dose, adult female db/db mice, 0.5 h, 1 h, 4 h. On the procedure:
At t=0, a dose of 50 mg/kg (circle) or 100 mg/kg (squares) was given p.o. to adult female db/db mice. At each time point (0.5 h, 1 h, and 4 h) three mice were killed and the plasma concentration of unbound AdipoRon was determined by LC/MS.

Like-named read-outs stand apart in the source and are kept apart here.

As to `COc1ccc(CN2CCN(C(=O)CCNC(=O)c3ccc(C(C)(C)C)cc3)CC2)cc1` [Compound 112254, 4-(tert-Butyl)-N-(3-(4-(4-methoxybenzyl)piperazin-1-yl)-3-oxopropyl)benzamide], the “binding to AdipoR2” value in data set [1] was “binds to AdipoR1 and AdipoR2”. The “binding to AdipoR1” value in data set [2] is “binds to AdipoR1 and AdipoR2”.
For orientation: EC50 means the midpoint of the concentration-response curve. With `O=C(COc1ccc(C(=O)c2ccccc2)cc1)NC1CCN(Cc2ccccc2)CC1` [AdipoRon, 2-(4-Benzoylphenoxy)-N-(1-benzylpiperidin-4-yl)acetamide], the “plasma AUC of progesterone” value in data set [3] was “increases Progesterone plasma concentration”. Moreover, the “plasma AUC of testosterone” value in [3] is recorded as “reduces Testosterone plasma concentration”. The “Cyp17a1 mRNA expression in ovaries” value in the data set on Cyp17a1 mRNA is recorded as “decreases the expression”. Further, the “Lhcgr (LH receptor) mRNA expression in ovaries” value in the data set on Lhcgr mRNA is given as “decreases the expression”. Also, the “effect on induction of StAR mRNA by ACTH” value in the data set on StAR mRNA in Y-1 cells (10 nM ACTH + 0.1, 1 or 10 μM) was “dose-dependently reduces the induction”. Moreover, the EC50 in the data set on StAR mRNA in Y-1 cells (Mus musculus, 10 nM ACTH, AdipoRon two and a half hours, FIG. 2A, read-out: EC50 for reduction of the induction of StAR by ACTH) is roughly 10 µM; in data set [5] (Y-1 cell, as restated for FIG. 5 (see FIG. 2), read-out: EC50 value for effects in Y-1 cell), roughly 100 nM; in [5] (Y-1 cells, 10 nM ACTH, AdipoRon two and a half hours, FIG. 2B, seems saturated at higher concentrations, read-out: EC50 for reduction of the induction of Cyp11b1 by ACTH) it was 100 to 1000 nM. Further, in data set [4] (mice double negative for Adiponectin Receptors 1 and 2, 100 mg/kg), the “Insulin concentrations during OGTT, Adipor1−/−Adipor2−/− mice” value was “no effect on plasma insulin”. Besides, in data set [4] (wt mice, 100 mg/kg), the “Insulin concentrations during OGTT, wild-type mice” value is given as “comparable data”. Further, the “effect on induction of Cyp11b1 mRNA by ACTH” value in [5] (Y-1 cells, 10 nM ACTH + 0.1, 1 or 10 μM) is given as “dose-dependently reduces the induction”. In addition, the plasma adiponectin concentration entry in data set [6] is “normalizes plasma adiponectin”. Moreover, the Plasma testosterone concentration entry in data set [6] (p<0.05) was “significantly reduces the increase in Testosterone”. In the data set on LH, the “LH concentration in plasma” value is given as “dose-dependently reduces the induction of LH”. Moreover, in the data set with tgLH mice, the “insulin sensitivity (plasma insulin 15 min after oral glucose)” value was “insulin sensitivity is increased”. The “plasma concentration of unbound AdipoRon versus EC50” value in [7] is reported as “reaches the EC50 value”.

Source of the values: patent publication US20220249458A1, “Agonists Of Adiponectin” (BAYER AKTIENGESELLSCHAFT, priority 2019, published 2022).
